According to patent US11427549B2, “Pyrimidinyloxy benzo-fused compounds as herbicides” (FMC Corporation, priority 2017, dated 2022):

How the values were obtained:
[1] = test system: ragweed (common ragweed, Ambrosia elatior); test: Test A postemergence, ragweed; type: in vivo; conditions: Ambrosia artemisiifolia, post-emergence, 240 h, 0 to 100 scale (0 no effect, 100 complete control), read-out: Plant response rating, Ragweed; for pest or weed control at 31 g/ha: 31 g ai/ha; for pest or weed control at 125 g/ha: 125 g ai/ha
Excerpt: (§1) Seeds of plant species selected from barnyardgrass (Echinochloa crus-galli), kochia (Kochia scoparia), ragweed (common ragweed, Ambrosia elatior), ryegrass, Italian (Italian ryegrass, Lolium multiflorum), foxtail, giant (giant foxtail, Setaria faberii), foxtail, green (green foxtail, Setaria viridis) and pigweed (Amaranthus retroflexus) were planted into a blend of loam soil and sand and treated preemergence with a directed soil spray using test chemicals formulated in a non-phytotoxic solvent mixture which included a surfactant.
(§2) At the same time, plants selected from these weed species and also wheat (Triticum aestivum), corn (Zea mays), blackgrass (Alopecurus myosuroides), and galium (catchweed bedstraw, Galium aparine) were planted in pots containing the same blend of loam soil and sand and treated with postemergence applications of test chemicals formulated in the same manner. Plants ranged in height from 2 to 10 cm and were in the one- to two-leaf stage for the postemergence treatment. Treated plants and untreated controls were maintained in a greenhouse for approximately 10 days, after which time all treated plants were compared to untreated controls and visually evaluated for injury. […] A dash (-) response means no test result.

[2] = test system: corn (Zea mays); test: Test A postemergence, corn; type: in vivo; conditions: Zea mays, post-emergence, 240 h, 0 to 100 scale (0 no effect, 100 complete control); for Corn plant response rating (crop injury, 0 = no effect, 100 = complete kill) at 31 g/ha: 31 g ai/ha; for Corn plant response rating (crop injury, 0 = no effect, 100 = complete kill) at 125 g/ha: 125 g ai/ha
Excerpt: as §1, §2

[3] = test system: blackgrass (Alopecurus myosuroides); test: Test A postemergence, blackgrass; type: in vivo; conditions: Alopecurus myosuroides, post-emergence, 240 h, 0 to 100 scale (0 no effect, 100 complete control), read-out: Plant response rating, Blackgrass; for pest or weed control at 31 g/ha: 31 g ai/ha; for pest or weed control at 125 g/ha: 125 g ai/ha
Excerpt: as §1, §2

[4] = test system: kochia (Kochia scoparia); test: Test A preemergence, kochia; type: in vivo; conditions: Bassia scoparia, pre-emergence, 240 h, 0 to 100 scale (0 no effect, 100 complete control), read-out: Plant response rating, Kochia; for pest or weed control at 31 g/ha: 31 g ai/ha; for pest or weed control at 125 g/ha: 125 g ai/ha
Excerpt: as §1, §2

[5] = test system: pigweed (Amaranthus retroflexus); test: Test A postemergence, pigweed; type: in vivo; conditions: Amaranthus retroflexus, post-emergence, 240 h, 0 to 100 scale (0 no effect, 100 complete control), read-out: Plant response rating, Pigweed; for pest or weed control at 31 g/ha: 31 g ai/ha; for pest or weed control at 125 g/ha: 125 g ai/ha
Excerpt: as §1, §2

[6] = test system: wheat (Triticum aestivum); test: Test A postemergence, wheat; type: in vivo; conditions: Triticum aestivum, post-emergence, 240 h, 0 to 100 scale (0 no effect, 100 complete control), read-out: Plant response rating, Wheat; for plant injury at 31 g/ha: 31 g ai/ha; for plant injury at 125 g/ha: 125 g ai/ha
Excerpt: as §1, §2

[7] = test system: galium (catchweed bedstraw, Galium aparine); test: Test A postemergence, galium; type: in vivo; conditions: Galium, post-emergence, 240 h, 0 to 100 scale (0 no effect, 100 complete control), read-out: Plant response rating, Galium; for pest or weed control at 31 g/ha: 31 g ai/ha; for pest or weed control at 125 g/ha: 125 g ai/ha
Excerpt: as §1, §2

[8] = test system: kochia (Kochia scoparia); test: Test A postemergence, kochia; type: in vivo; conditions: Bassia scoparia, post-emergence, 240 h, 0 to 100 scale (0 no effect, 100 complete control), read-out: Plant response rating, Kochia; for pest or weed control at 31 g/ha: 31 g ai/ha; for pest or weed control at 125 g/ha: 125 g ai/ha
Excerpt: as §1, §2

[9] = test system: ryegrass, Italian (Italian ryegrass, Lolium multiflorum); test: Test A preemergence, ryegrass, Italian; type: in vivo; conditions: Lolium multiflorum, pre-emergence, 240 h, 0 to 100 scale (0 no effect, 100 complete control), read-out: Plant response rating, Ryegrass, Italian; for pest or weed control at 31 g/ha: 31 g ai/ha; for pest or weed control at 125 g/ha: 125 g ai/ha
Excerpt: as §1, §2

[10] = test system: barnyardgrass (Echinochloa crus-galli); test: Test A postemergence, barnyardgrass; type: in vivo; conditions: Echinochloa crus-galli, post-emergence, 240 h, 0 to 100 scale (0 no effect, 100 complete control), read-out: Plant response rating, Barnyardgrass; for pest or weed control at 31 g/ha: 31 g ai/ha; for pest or weed control at 125 g/ha: 125 g ai/ha
Excerpt: as §1, §2

[11] = test system: ragweed (common ragweed, Ambrosia elatior); test: Test A preemergence, ragweed; type: in vivo; conditions: Ambrosia artemisiifolia, pre-emergence, 240 h, 0 to 100 scale (0 no effect, 100 complete control), read-out: Plant response rating, Ragweed
Excerpt: as §1, §2

[12] = test system: ryegrass, Italian (Italian ryegrass, Lolium multiflorum); test: Test A postemergence, ryegrass, Italian; type: in vivo; conditions: Lolium multiflorum, post-emergence, 240 h, 0 to 100 scale (0 no effect, 100 complete control), read-out: Plant response rating, Ryegrass, Italian; for pest or weed control at 31 g/ha: 31 g ai/ha; for pest or weed control at 125 g/ha: 125 g ai/ha
Excerpt: as §1, §2

[13] = test system: pigweed (Amaranthus retroflexus); test: Test A preemergence, pigweed; type: in vivo; conditions: Amaranthus retroflexus, pre-emergence, 240 h, 0 to 100 scale (0 no effect, 100 complete control), read-out: Plant response rating, Pigweed; for pest or weed control at 31 g/ha: 31 g ai/ha; for pest or weed control at 125 g/ha: 125 g ai/ha
Excerpt: as §1, §2

[14] = test system: barnyardgrass (Echinochloa crus-galli); test: Test A preemergence, barnyardgrass; type: in vivo; conditions: Echinochloa crus-galli, pre-emergence, 240 h, 0 to 100 scale (0 no effect, 100 complete control), read-out: Plant response rating, Barnyardgrass; for pest or weed control at 31 g/ha: 31 g ai/ha; for pest or weed control at 125 g/ha: 125 g ai/ha
Excerpt: as §1, §2

[15] = test system: rice (Oryza sativa); test: Test B flooded paddy test, rice; conditions: Oryza sativa, read-out: Plant response rating, Rice (0 to 100 scale, 0 is no effect, 100 is complete control)
[16] = test system: barnyardgrass (Echinochloa crus-galli); test: Test B flooded paddy test, barnyardgrass; conditions: Echinochloa crus-galli, read-out: Plant response rating, Barnyardgrass (0 to 100 scale, 0 is no effect, 100 is complete control)
[17] = test system: ducksalad (Heteranthera limosa); test: Test B flooded paddy test, ducksalad; conditions: Heteranthera limosa, read-out: Plant response rating, Ducksalad (0 to 100 scale, 0 is no effect, 100 is complete control)

Row | SMILES | pest or weed control at 31 g/ha [1] | pest or weed control at 125 g/ha [1] | Corn plant response rating (crop injury, 0 = no effect, 100 = complete kill) at 31 g/ha [2] | Corn plant response rating (crop injury, 0 = no effect, 100 = complete kill) at 125 g/ha [2] | pest or weed control at 31 g/ha [3] | pest or weed control at 125 g/ha [3] | pest or weed control at 31 g/ha [4] | pest or weed control at 125 g/ha [4] | pest or weed control at 31 g/ha [5] | pest or weed control at 125 g/ha [5] | plant injury at 31 g/ha [6] | plant injury at 125 g/ha [6] | pest or weed control at 31 g/ha [7] | pest or weed control at 125 g/ha [7] | pest or weed control at 31 g/ha [8] | pest or weed control at 125 g/ha [8] | pest or weed control at 31 g/ha [9] | pest or weed control at 125 g/ha [9] | pest or weed control at 31 g/ha [10] | pest or weed control at 125 g/ha [10] | other results
1 | O=C1OCc2cccc(Oc3ncc(Cl)cn3)c2C1CCCC(F)(F)F (centres unmarked) [Compound 26, 5-[(5-Chloro-2-pyrimidinyl)oxy]-1,4-dihydro-4-(4,4,4-trifluorobutyl)-3H-2-benzopyran-3-one] | 0% | 10% | 10% | 20% | 0% | 0% | 0% | 20% | 30% | 60% | 0% | 0% | 20% | 50% | 20% | 60% | 0% | 10% | 100% | 100% | pest or weed control at 31 g/ha ([11]; 31 g ai/ha): 0%; pest or weed control at 125 g/ha ([11]; 125 g ai/ha): 0%; pest or weed control at 31 g/ha [12]: 0%; pest or weed control at 125 g/ha [12]: 0%; pest or weed control at 31 g/ha [13]: 20%; pest or weed control at 125 g/ha [13]: 100%; pest or weed control at 31 g/ha [14]: 0%; pest or weed control at 125 g/ha [14]: 30%
2 | FC(F)(F)CCCC1COc2cccc(Oc3ncc(Cl)cn3)c21 (centres unmarked) [Compound 33, 5-Chloro-2-[[2,3-dihydro-3-(4,4,4-trifluorobutyl)-4-benzofuranyl]oxy]pyrimidine] | 0% | 10% | 0% | 0% | 0% | 20% | 0% | 0% | 20% | 30% | 0% | 0% | 50% | 70% | 30% | 40% | 0% | 50% | 10% | 20% | plant injury at 250 g/ha [15]: 0%; pest or weed control at 250 g/ha [16]: 0%; pest or weed control at 250 g/ha [17]: 70%; pest or weed control at 31 g/ha [12]: 0%; pest or weed control at 125 g/ha [12]: 0%; pest or weed control at 31 g/ha [13]: 0%; pest or weed control at 125 g/ha [13]: 10%; pest or weed control at 31 g/ha [14]: 0%; pest or weed control at 125 g/ha [14]: 50%
3 | FC(F)(F)CCC1COc2cccc(Oc3ncc(Cl)cn3)c21 (centres unmarked) [Compound 36, 5-Chloro-2-[[2,3-dihydro-3-(3,3,3-trifluoropropyl)-4-benzofuranyl]oxy]pyrimidine] | 0% | 0% | 0% | 0% | 0% | 0% | 0% | 0% | 10% | 10% | 0% | 0% | 10% | 10% | 30% | 50% | 0% | 0% | 0% | 10% | plant injury at 250 g/ha [15]: 0%; pest or weed control at 250 g/ha [16]: 0%; pest or weed control at 250 g/ha [17]: 50%; pest or weed control at 31 g/ha [12]: 0%; pest or weed control at 125 g/ha [12]: 0%; pest or weed control at 31 g/ha [13]: 0%; pest or weed control at 125 g/ha [13]: 0%; pest or weed control at 31 g/ha [14]: 0%; pest or weed control at 125 g/ha [14]: 0%
